SMILES strings stand for the structures.

In the assay the target is T1, KRAS G12C 1-169, his-tagged protein, GDP-loaded (Homo sapiens, UniProt P01116, G12C).
T1 construct: KRAS G12C 1-169, his-tagged protein, GDP-loaded
As to the kind of experiment: KRAS G12C covalent binding (% modification) by mass spectrometry, ten or three minute incubation. The settings on record: covalent binding to KRAS G12C, % modification after a three minute incubation period. An outline of the steps:
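GDP-loaded protein in 20 mM Hepes, 150 mM NaCl, 1 mM MgCl2 was incubated with compound (final 100, 30 or 10 μM; 2% DMSO) at room temperature, then quenched with formic acid. Intact-protein LC-MS with charge-envelope deconvolution gave masses and intensities of modified and unmodified species.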
As for `C=CC(=O)N1C[C@H](C)N(c2nc(OCCn3ccnc3C3CC3)nc3c(F)c(-c4c(C)ccc5[nH]ncc45)c(Cl)cc23)C[C@H]1C` [Compound 276, 1-((2R,5S)-4-(6-chloro-2-(2-(2-cyclopropyl-1H-imidazol-1-yl)ethoxy)-8-fluoro-7-(5-methyl-1H-indazol-4-yl)quinazolin-4-yl)-2,5-dimethylpiperazin-1-yl)prop-2-en-1-one], the Binding % entry was “++ (++ indicates binding activity from 50 to 90%)”. With `C=CC(=O)N1C[C@H](C)N(c2nc(OCCn3ccnc3C#N)nc3c(F)c(-c4c(C)ccc5[nH]ncc45)c(Cl)cc23)C[C@H]1C` [Compound 279, 1-(2-((4-((2S,5R)-4-acryloyl-2,5-dimethylpiperazin-1-yl)-6-chloro-8-fluoro-7-(5-methyl-1H-indazol-4-yl)quinazolin-2-yl)oxy)ethyl)-1H-imidazole-2-carbonitrile] the entry was “++ (++ indicates binding activity from 50 to 90%)”; with `C=CC(=O)N1C[C@H](C)N(c2nc(OCC(C)(C)O)nc3c(F)c(-c4c(O)cccc4F)c(Cl)cc23)C[C@H]1C` [Compound 281, 1-((2R,5S)-4-(6-chloro-8-fluoro-7-(2-fluoro-6-hydroxyphenyl)-2-(2-hydroxy-2-methylpropoxy)quinazolin-4-yl)-2,5-dimethylpiperazin-1-yl)prop-2-en-1-one], “++ (++ indicates binding activity from 50 to 90%)”. Regarding `C=CC(=O)N1C[C@H](C)N(c2nc(OCCn3ccnc3CC)nc3c(F)c(-c4c(C)ccc5[nH]ncc45)c(Cl)cc23)C[C@H]1C` [Compound 283, 1-((2R,5S)-4-(6-chloro-2-(2-(2-ethyl-1H-imidazol-1-yl)ethoxy)-8-fluoro-7-(5-methyl-1H-indazol-4-yl)quinazolin-4-yl)-2,5-dimethylpiperazin-1-yl)prop-2-en-1-one], the Binding % result is given as “+++ (+++ indicates binding activity greater than 90%)”. Consider `C=CC(=O)N1C[C@H](C)N(c2nc(N3CC(N(C)C)C3)nc3c(F)c(-c4c[nH]c5ccccc45)c(Cl)cc23)C[C@H]1C` [Compound 285, 1-((2R,5S)-4-(6-chloro-2-(3-(dimethylamino)azetidin-1-yl)-8-fluoro-7-(1H-indol-3-yl)quinazolin-4-yl)-2,5-dimethylpiperazin-1-yl)prop-2-en-1-one], for which the Binding % entry was “+ (+ indicates binding activity greater than 0% and up to 50%)”. With `C=CC(=O)N1C[C@H](C)N(c2nc(N3CC(N(C)C)C3)nc3c(F)c(-c4c(C)ccc5[nH]nc(I)c45)c(Cl)cc23)C[C@H]1C` [Compound 286, 1-((2R,5S)-4-(6-chloro-2-(3-(dimethylamino)azetidin-1-yl)-8-fluoro-7-(3-iodo-5-methyl-1H-indazol-4-yl)quinazolin-4-yl)-2,5-dimethylpiperazin-1-yl)prop-2-en-1-one] the entry was “+++ (+++ indicates binding activity greater than 90%)”; with `C=CC(=O)N1C[C@H](C)N(c2nc(N3CC(N(C)C)C3)nc3c(F)c(-c4c(C)[nH]c5ccccc45)c(Cl)cc23)C[C@H]1C` [Compound 287, 1-((2R,5S)-4-(6-chloro-2-(3-(dimethylamino)azetidin-1-yl)-8-fluoro-7-(2-methyl-1H-indol-3-yl)quinazolin-4-yl)-2,5-dimethylpiperazin-1-yl)prop-2-en-1-one], “+ (+ indicates binding activity greater than 0% and up to 50%)”; with `C=CC(=O)N1C[C@H](C)N(c2nc(N3CC(N(C)C)C3)nc3c(F)c(-c4c[nH]c5cccc(F)c45)c(Cl)cc23)C[C@H]1C` [Compound 290, 1-((2R,5S)-4-(6-chloro-2-(3-(dimethylamino)azetidin-1-yl)-8-fluoro-7-(4-fluoro-1H-indol-3-yl)quinazolin-4-yl)-2,5-dimethylpiperazin-1-yl)prop-2-en-1-one], “+ (+ indicates binding activity greater than 0% and up to 50%)”. In the case of `C=CC(=O)N1C[C@H](C)N(c2nc(N3CC(N(C)C)C3)nc3c(F)c(-c4c[nH]c5cccc(C)c45)c(Cl)cc23)C[C@H]1C` [Compound 291, 1-((2R,5S)-4-(6-chloro-2-(3-(dimethylamino)azetidin-1-yl)-8-fluoro-7-(4-methyl-1H-indol-3-yl)quinazolin-4-yl)-2,5-dimethylpiperazin-1-yl)prop-2-en-1-one], the Binding % result was “+ (+ indicates binding activity greater than 0% and up to 50%)”. For `C=CC(=O)N1C[C@H](C)N(c2nc(N3CC(N(C)C)C3)nc3c(F)c(-c4c(C)ccc5[nH]nc(C#N)c45)c(Cl)cc23)C[C@H]1C` [Compound 292, 4-(4-((2S,5R)-4-acryloyl-2,5-dimethylpiperazin-1-yl)-6-chloro-2-(3-(dimethylamino)azetidin-1-yl)-8-fluoroquinazolin-7-yl)-5-methyl-1H-indazole-3-carbonitrile], the Binding % result is “++ (++ indicates binding activity from 50 to 90%)”.

`C=CC(=O)N1C[C@H](C)N(c2nc(OCCc3nccn3C)nc3c(F)c(-c4c(C)ccc5[nH]ncc45)c(Cl)cc23)C[C@H]1C` [Compound 293, 1-((2R,5S)-4-(6-chloro-8-fluoro-2-(2-(1-methyl-1H-imidazol-2-yl)ethoxy)-7-(5-methyl-1H-indazol-4-yl)quinazolin-4-yl)-2,5-dimethylpiperazin-1-yl)prop-2-en-1-one]: the Binding % result was “++ (++ indicates binding activity from 50 to 90%)”. As to `C=CC(=O)N1C[C@H](C)N(c2nc(N3CC(N(C)C)C3)nc3c(F)c(-c4c[nH]c5c(F)cccc45)c(Cl)cc23)C[C@H]1C` [Compound 294, 1-((2R,5S)-4-(6-chloro-2-(3-(dimethylamino)azetidin-1-yl)-8-fluoro-7-(7-fluoro-1H-indol-3-yl)quinazolin-4-yl)-2,5-dimethylpiperazin-1-yl)prop-2-en-1-one], the Binding % result is “+ (+ indicates binding activity greater than 0% and up to 50%)”. With `C=CC(=O)N1C[C@H](C)N(c2nc(N3CC(N(C)C)C3)nc3c(F)c(-c4n[nH]c5ccccc45)c(Cl)cc23)C[C@H]1C` [Compound 295, 1-((2R,5S)-4-(6-chloro-2-(3-(dimethylamino)azetidin-1-yl)-8-fluoro-7-(1H-indazol-3-yl)quinazolin-4-yl)-2,5-dimethylpiperazin-1-yl)prop-2-en-1-one] the entry was “+ (+ indicates binding activity greater than 0% and up to 50%)”. Consider `C=CC(=O)N1C[C@H](C)N(c2nc(N3CC(N(C)C)C3)nc3c(F)c(-c4c(C)ccc5[nH]nc(C(N)=O)c45)c(Cl)cc23)C[C@H]1C` [Compound 296, 4-(4-((2S,5R)-4-acryloyl-2,5-dimethylpiperazin-1-yl)-6-chloro-2-(3-(dimethylamino)azetidin-1-yl)-8-fluoroquinazolin-7-yl)-5-methyl-1H-indazole-3-carboxamide], for which the Binding % entry is on record as “++ (++ indicates binding activity from 50 to 90%)”. With `C=CC(=O)N1C[C@H](C)N(c2nc(N3CC(N(C)C)C3)nc3c(F)c(-c4c(C)ccc5[nH]nc([N+](=O)[O-])c45)c(Cl)cc23)C[C@H]1C` [Compound 297, 1-((2R,5S)-4-(6-chloro-2-(3-(dimethylamino)azetidin-1-yl)-8-fluoro-7-(5-methyl-3-nitro-1H-indazol-4-yl)quinazolin-4-yl)-2,5-dimethylpiperazin-1-yl)prop-2-en-1-one] the entry was “+ (+ indicates binding activity greater than 0% and up to 50%)”; with `C=CC(=O)N1C[C@H](C)N(c2nc(N3CC(N(C)C)C3)nc3c(F)c(-c4c(C)ccc5[nH]nc(N)c45)c(Cl)cc23)C[C@H]1C` [Compound 298, 1-((2R,5S)-4-(7-(3-amino-5-methyl-1H-indazol-4-yl)-6-chloro-2-(3-(dimethylamino)azetidin-1-yl)-8-fluoroquinazolin-4-yl)-2,5-dimethylpiperazin-1-yl)prop-2-en-1-one], “++ (++ indicates binding activity from 50 to 90%)”. Regarding `C=CC(=O)N1C[C@H](C)N(c2nc(N3CC(N(C)C)C3)nc3c(F)c(-c4c(C)ccc5[nH]nc(CO)c45)c(Cl)cc23)C[C@H]1C` [Compound 299, 1-((2R,5S)-4-(6-chloro-2-(3-(dimethylamino)azetidin-1-yl)-8-fluoro-7-(3-(hydroxymethyl)-5-methyl-1H-indazol-4-yl)quinazolin-4-yl)-2,5-dimethylpiperazin-1-yl)prop-2-en-1-one], the Binding % result is reported as “++ (++ indicates binding activity from 50 to 90%)”. With `C=CC(=O)N1C[C@H](C)N(c2nc(N3CC(N(C)C)C3)nc3c(F)c(-c4c[nH]c5ncccc45)c(Cl)cc23)C[C@H]1C` [Compound 300, 1-((2R,5S)-4-(6-chloro-2-(3-(dimethylamino)azetidin-1-yl)-8-fluoro-7-(1H-pyrrolo[2,3-b]pyridin-3-yl)quinazolin-4-yl)-2.5-dimethylpiperazin-1-yl)prop-2-en-1-one] the entry was “+ (+ indicates binding activity greater than 0% and up to 50%)”; with `C=CC(=O)N1C[C@H](C)N(c2nc(N3CC(N(C)CCCCCN=[N+]=[N-])C3)nc3c(F)c(-c4c(O)cccc4F)c(Cl)cc23)C[C@H]1C` [Compound 301, 1-((2R,5S)-4-(2-(3-((5-azidopentyl)(methyl)amino)azetidin-1-yl)-6-chloro-8-fluoro-7-(2-fluoro-6-hydroxyphenyl)quinazolin-4-yl)-2,5-dimethylpiperazin-1-yl)prop-2-en-1-one], “++ (++ indicates binding activity from 50 to 90%)”; with `C=CC(=O)N1C[C@H](C)N(c2nc(OCCc3cn(C(C)C)cn3)nc3c(F)c(-c4c(O)cccc4F)c(Cl)cc23)C[C@H]1C` [Compound 302, 1-((2R,5S)-4-(6-chloro-8-fluoro-7-(2-fluoro-6-hydroxyphenyl)-2-(2-(1-isopropyl-1H-imidazol-4-yl)ethoxy)quinazolin-4-yl)-2,5-dimethylpiperazin-1-yl)prop-2-en-1-one], “+++ (+++ indicates binding activity greater than 90%)”.

Values taken from patent US11021470B2, “2-substituted quinazoline compounds comprising a substituted heterocyclic group and methods of use thereof” (Araxes Pharma LLC, priority 2015, dated 2021).
